# Patent US12637428B2, “Isoquinoline derivatives as SIK2 inhibitors” (Cancer Research Technology Limited, priority 2019, dated 2026)
# pKi: −log10 of the molar value.
# Tests used:
# Assay type in all cases: biochemical
# SIK2 = target: T1, SIK2 (Homo sapiens, UniProt Q9H0K1); assay: SIK2 kinase assay, IMAP fluorescence polarization; conditions: 50 or 100 μM ATP, average
# T1 construct: purchased Life Technologies
# Description: (§1) SIK2, SIK1, SIK3, Abl, Src and EPHA2 Kinase Assays
# (§2) SIK2, SIK1, SIK3, Abl, Src and EPHA2 assays were performed using an IMAP fluorescence polarization assay format (Molecular Devices Inc.). 0.6-13 nM of each kinase (Life Technologies) was incubated for 60 min at room temperature with 100 nM of either FAM-Abltide, FAM-Srctide or FAM-HDAC protein derived peptide (synthesized by Alta Biosciences, Birmingham UK). Assays were carried out in the presence of 50 or 100 μM ATP in either 20 mM Tris buffer (pH 7.2) containing 4 mM MgCl2, 0.2% BSA and 2 mM DTT (SIK2, SIK1, SIK3, Abl, Src); or 20 mM Tris buffer (pH 8.5) containing 20 mM MgCl2, 0.5% BSA, 0.2% Triton and 5 mM DTT (EPHA2). Typically, dose response analyses were performed over concentration ranges from 0.00005-1 μM. Reactions were stopped by adding 2 assay volumes of 0.25% (v/v) IMAP binding reagent in either an 85:15 ratio (SIK2, SIK1, SIK3, Abl, EPHA2) or 30:70 ratio (Src) of IMAP binding buffers A and B (Molecular Devices). After incubation to allow the detection reagents to bind to the phosphorylated peptide, fluorescence polarization was measured on a Tecan Infinite plate reader at excitation (470 nm) and emission (530 nm) wavelengths. Inhibition was calculated using no inhibitor and no enzyme controls as 0 and 100% inhibition, respectively.
# (§3) Table 3 provides details of the inhibitory constant (nM) of compounds of the invention at SIK1, SIK2 and SIK3 and other kinases.
# SIK1 = target: T2, SIK1 (Homo sapiens, UniProt P57059); assay: SIK1 kinase assay, IMAP fluorescence polarization; conditions: 50 or 100 μM ATP, average
# T2 construct: purchased Life Technologies
# T2 sequence (P57059 whole entry): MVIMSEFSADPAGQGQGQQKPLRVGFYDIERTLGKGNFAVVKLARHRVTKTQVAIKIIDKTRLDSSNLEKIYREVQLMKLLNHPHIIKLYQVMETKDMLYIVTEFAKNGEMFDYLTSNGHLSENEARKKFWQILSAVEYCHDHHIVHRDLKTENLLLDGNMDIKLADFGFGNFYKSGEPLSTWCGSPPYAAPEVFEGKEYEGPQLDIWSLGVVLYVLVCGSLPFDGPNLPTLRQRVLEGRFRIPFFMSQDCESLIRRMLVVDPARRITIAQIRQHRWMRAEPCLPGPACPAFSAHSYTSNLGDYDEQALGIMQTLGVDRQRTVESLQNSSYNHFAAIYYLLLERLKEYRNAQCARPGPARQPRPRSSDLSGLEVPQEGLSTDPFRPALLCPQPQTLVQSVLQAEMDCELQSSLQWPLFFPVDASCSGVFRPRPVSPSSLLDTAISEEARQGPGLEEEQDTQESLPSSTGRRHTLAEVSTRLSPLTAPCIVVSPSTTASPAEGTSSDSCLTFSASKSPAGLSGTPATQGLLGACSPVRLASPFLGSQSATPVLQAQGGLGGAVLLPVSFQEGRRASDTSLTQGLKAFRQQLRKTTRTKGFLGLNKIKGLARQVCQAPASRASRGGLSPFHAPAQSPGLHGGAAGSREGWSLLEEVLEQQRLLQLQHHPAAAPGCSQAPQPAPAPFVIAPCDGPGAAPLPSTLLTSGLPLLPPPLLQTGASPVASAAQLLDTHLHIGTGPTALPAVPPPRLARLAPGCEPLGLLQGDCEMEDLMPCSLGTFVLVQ
# Description: as §1, §2, §3
# SIK3 = target: T3, SIK3 (Homo sapiens, UniProt Q9Y2K2); assay: SIK3 kinase assay, IMAP fluorescence polarization; conditions: 50 or 100 μM ATP, average
# T3 construct: purchased Life Technologies
# T3 sequence (Q9Y2K2 whole entry): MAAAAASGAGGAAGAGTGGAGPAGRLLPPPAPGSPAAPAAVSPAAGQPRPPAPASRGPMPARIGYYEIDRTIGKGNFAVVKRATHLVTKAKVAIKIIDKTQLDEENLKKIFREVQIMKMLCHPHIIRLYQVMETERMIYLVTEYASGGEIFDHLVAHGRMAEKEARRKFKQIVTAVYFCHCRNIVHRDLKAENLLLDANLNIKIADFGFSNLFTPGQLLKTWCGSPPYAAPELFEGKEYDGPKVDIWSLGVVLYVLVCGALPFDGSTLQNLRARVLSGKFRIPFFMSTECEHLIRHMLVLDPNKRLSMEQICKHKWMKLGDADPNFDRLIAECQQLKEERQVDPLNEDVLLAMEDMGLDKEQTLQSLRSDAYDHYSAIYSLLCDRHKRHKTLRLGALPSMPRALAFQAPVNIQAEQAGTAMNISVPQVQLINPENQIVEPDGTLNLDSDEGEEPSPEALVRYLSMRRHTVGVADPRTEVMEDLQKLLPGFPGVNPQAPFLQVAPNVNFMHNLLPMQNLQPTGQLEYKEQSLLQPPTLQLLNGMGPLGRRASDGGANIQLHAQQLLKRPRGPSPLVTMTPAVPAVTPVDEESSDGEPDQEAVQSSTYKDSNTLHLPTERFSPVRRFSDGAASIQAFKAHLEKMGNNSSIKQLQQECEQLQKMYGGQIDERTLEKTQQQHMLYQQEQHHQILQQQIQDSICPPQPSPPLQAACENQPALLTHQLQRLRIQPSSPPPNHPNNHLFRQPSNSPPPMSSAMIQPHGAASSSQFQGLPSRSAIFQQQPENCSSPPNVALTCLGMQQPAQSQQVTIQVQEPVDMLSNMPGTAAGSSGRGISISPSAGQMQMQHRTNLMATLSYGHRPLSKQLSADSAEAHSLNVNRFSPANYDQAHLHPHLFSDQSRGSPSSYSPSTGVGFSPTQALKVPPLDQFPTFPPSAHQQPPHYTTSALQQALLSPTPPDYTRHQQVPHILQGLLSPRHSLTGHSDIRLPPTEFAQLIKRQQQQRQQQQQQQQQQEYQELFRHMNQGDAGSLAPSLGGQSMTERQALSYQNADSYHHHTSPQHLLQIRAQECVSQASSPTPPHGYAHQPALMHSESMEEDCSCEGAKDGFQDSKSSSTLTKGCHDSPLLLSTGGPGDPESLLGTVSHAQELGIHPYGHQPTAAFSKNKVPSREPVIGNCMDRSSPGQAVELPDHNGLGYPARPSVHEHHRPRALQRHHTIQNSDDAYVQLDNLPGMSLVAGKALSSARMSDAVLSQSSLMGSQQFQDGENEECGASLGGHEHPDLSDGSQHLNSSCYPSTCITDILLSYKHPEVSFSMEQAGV
# Description: as §1, §2, §3
# Abl = target: T4, Abl (Homo sapiens, UniProt P00519); assay: Abl kinase assay, IMAP fluorescence polarization; conditions: 50 or 100 μM ATP, average
# T4 construct: purchased Life Technologies
# T4 sequence (P00519 whole entry): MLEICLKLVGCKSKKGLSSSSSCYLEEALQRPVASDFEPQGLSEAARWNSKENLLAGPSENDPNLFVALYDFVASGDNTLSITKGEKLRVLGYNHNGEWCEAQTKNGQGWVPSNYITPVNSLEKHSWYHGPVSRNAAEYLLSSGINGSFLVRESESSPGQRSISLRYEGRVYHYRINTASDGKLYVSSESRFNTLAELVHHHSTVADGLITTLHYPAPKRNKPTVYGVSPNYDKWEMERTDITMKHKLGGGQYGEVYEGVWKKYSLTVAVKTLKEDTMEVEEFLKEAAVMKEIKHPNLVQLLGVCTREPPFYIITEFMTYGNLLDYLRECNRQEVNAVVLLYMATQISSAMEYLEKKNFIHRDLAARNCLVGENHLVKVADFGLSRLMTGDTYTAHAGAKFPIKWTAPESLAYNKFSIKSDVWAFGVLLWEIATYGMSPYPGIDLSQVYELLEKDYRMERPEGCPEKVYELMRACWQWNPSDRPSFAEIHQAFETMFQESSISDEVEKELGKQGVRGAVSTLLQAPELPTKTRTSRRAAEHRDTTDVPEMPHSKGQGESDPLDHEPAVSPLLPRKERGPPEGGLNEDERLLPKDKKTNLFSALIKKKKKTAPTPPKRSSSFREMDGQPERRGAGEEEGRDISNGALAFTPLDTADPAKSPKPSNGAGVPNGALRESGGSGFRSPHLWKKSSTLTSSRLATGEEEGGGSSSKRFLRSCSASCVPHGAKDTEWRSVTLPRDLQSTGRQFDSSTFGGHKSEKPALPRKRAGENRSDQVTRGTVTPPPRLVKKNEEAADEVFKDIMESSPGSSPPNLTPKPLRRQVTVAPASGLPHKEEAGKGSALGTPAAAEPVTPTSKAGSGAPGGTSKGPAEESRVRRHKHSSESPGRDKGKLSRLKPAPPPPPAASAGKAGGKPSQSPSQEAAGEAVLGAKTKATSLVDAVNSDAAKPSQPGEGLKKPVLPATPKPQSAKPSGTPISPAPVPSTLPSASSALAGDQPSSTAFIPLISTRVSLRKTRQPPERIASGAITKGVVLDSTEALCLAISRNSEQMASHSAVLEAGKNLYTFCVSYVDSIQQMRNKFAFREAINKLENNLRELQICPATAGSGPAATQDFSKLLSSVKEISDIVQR
# Description: as §1, §2, §3
# Src = target: T5, Src (Homo sapiens, UniProt P12931); assay: Src kinase assay, IMAP fluorescence polarization; conditions: 50 or 100 μM ATP, average
# T5 construct: purchased Life Technologies
# T5 sequence (P12931 whole entry): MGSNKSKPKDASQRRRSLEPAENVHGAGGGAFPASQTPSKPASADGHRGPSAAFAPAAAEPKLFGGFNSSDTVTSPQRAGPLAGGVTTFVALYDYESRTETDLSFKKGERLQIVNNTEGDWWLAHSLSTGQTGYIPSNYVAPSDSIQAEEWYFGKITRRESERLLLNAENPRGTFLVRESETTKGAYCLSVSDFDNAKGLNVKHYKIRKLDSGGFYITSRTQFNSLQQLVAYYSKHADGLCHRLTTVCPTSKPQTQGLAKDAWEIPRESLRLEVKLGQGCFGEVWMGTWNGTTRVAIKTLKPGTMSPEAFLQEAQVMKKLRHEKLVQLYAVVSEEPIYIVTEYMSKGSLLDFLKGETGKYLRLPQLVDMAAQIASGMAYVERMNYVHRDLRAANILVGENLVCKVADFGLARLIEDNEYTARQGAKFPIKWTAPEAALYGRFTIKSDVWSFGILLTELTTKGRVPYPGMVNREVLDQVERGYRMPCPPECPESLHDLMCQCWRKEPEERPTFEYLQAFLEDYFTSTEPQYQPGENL
# Description: as §1, §2, §3
# EPHA2 = target: T6, EPHA2 (Homo sapiens, UniProt P29317); assay: EPHA2 kinase assay, IMAP fluorescence polarization; conditions: 50 or 100 μM ATP, Tris pH 8.5, average
# T6 construct: purchased Life Technologies
# Description: as §1, §2, §3
# T1 sequence (Q9H0K1 whole entry): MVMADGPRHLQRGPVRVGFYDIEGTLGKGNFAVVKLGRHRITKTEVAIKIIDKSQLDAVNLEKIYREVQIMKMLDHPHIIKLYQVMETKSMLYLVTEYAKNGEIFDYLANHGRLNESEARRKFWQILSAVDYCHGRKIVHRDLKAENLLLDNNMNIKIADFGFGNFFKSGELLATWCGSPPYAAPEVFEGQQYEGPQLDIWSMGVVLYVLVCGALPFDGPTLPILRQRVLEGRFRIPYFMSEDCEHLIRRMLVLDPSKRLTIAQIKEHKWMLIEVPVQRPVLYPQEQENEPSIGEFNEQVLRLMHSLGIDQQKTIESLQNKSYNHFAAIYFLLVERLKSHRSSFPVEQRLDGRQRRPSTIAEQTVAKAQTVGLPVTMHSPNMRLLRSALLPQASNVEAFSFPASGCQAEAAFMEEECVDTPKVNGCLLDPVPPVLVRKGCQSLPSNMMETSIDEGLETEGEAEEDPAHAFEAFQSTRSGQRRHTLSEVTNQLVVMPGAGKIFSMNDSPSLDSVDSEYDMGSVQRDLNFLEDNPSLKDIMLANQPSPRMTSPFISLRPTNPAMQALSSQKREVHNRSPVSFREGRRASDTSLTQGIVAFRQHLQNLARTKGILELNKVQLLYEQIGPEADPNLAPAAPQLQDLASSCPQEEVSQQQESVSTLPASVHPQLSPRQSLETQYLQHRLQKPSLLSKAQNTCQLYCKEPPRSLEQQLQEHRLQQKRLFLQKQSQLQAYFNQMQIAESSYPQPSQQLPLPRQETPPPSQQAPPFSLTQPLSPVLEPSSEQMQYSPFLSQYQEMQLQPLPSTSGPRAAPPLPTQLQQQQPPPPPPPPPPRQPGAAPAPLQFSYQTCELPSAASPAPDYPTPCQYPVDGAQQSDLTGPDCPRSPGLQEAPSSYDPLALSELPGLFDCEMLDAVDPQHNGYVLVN
Compound,pKi (SIK2),pKi (SIK1),pKi (SIK3),pKi (Abl),pKi (Src),pKi (EPHA2)
"Cc1cccc(Cl)c1-c1cc(NC2CNC2)c2cc(N)ncc2c1 [Example 31, N5-(azetidin-3-yl)-7-(2-chloro-6-methyl-phenyl)isoquinoline-3,5-diamine]",9.01,8.59,8.02,6.74,6.50,< 6.00
"Cc1cccc(Cl)c1-c1ccc2c(C(=O)N[C@@H]3CCNC3)c(N)ncc2c1 [Example 42, 3-amino-7-(2-chloro-6-methyl-phenyl)-N-[(3R)-pyrrolidin-3-yl]isoquinoline-4-carboxamide]",8.18,7.77,7.00,6.47,6.70,6.76
"Cc1cccc(F)c1-c1cc(NC(=O)C2CCNCC2)c2cc(N)ncc2c1 [Example 44, N-[3-Amino-7-(2-fluoro-6-methyl-phenyl)-5-isoquinolyl]piperidine-4-carboxamide]",8.23,7.81,7.43,7.07,6.54,6.19
"Cc1cccc(F)c1-c1cc(NC(=O)C2CNC2)c2cc(N)ncc2c1 [Example 45, N-[3-amino-7-(2-fluoro-6-methyl-phenyl)-5-isoquinolyl] azetidine-3-carboxamide]",8.26,7.75,7.45,7.08,6.05,6.03
"Cc1cccc(Cl)c1-c1cc(NC2CCNCC2)c2ccncc2c1 [Example 50, 7-(2-chloro-6-methyl-phenyl)-N-(4-piperidyl) isoquinolin-5-amine]",9.01,8.90,8.49,7.18,7.01,7.72
"Cc1cccc(F)c1-c1cc(C(=O)NC2CCNCC2)c2cc(N)ncc2c1 [Example 52, 3-Amino-7-(2-fluoro-6-methyl-phenyl)-N-(4-piperidyl)isoquinoline-5-carboxamide]",8.51,8.26,7.94,7.92,7.22,7.62
"Cc1cccc(F)c1-c1cc(C(=O)NC2CCNC2)c2cc(N)ncc2c1 (stereo not drawn) [Example 53, 3-amino-7-(2-fluoro-6-methyl-phenyl)-N-pyrrolidin-3-yl-isoquinoline-5-carboxamide]",5.56,4.89,< 4.00,5.26,< 4.00,< 4.00
"Cc1cccc(F)c1-c1cc(N2CC[C@@H](N(C)C)C2)c2cc(N)ncc2c1 [Example 58, 5-[(3R)-3-(dimethylamino)pyrrolidin-1-yl]-7-(2-fluoro-6-methyl-phenyl)isoquinolin-3-amine]",8.96,8.27,8.06,6.97,5.85,< 6.00
"Cc1cccc(F)c1-c1cc(N2CC[C@H](N(C)C)C2)c2cc(N)ncc2c1 [Example 59, 5-[(3S)-3-(dimethylamino)pyrrolidin-1-yl]-7-(2-fluoro-6-methyl-phenyl)isoquinolin-3-amine]",8.54,7.82,7.56,6.68,5.66,< 6.00
"Cc1cccc(F)c1-c1cc(N2CCC[C@H](CN(C)C)C2)c2cc(N)ncc2c1 [Example 60, 5-[(3R)-3-[(dimethylamino)methyl]-1-piperidyl]-7-(2-fluoro-6-methyl-phenyl)isoquinolin-3-amine]",8.84,8.10,7.37,6.65,6.10,< 6.00
"Cc1cccc(F)c1-c1cc(N2CCC[C@@H](CN(C)C)C2)c2cc(N)ncc2c1 [Example 61, 5-[(3S)-3-[(dimethylamino)methyl]-1-piperidyl]-7-(2-fluoro-6-methyl-phenyl)isoquinolin-3-amine]",8.97,8.49,7.40,7.56,6.65,6.70

# Stronger by pKi (SIK2), values ahead:
pKi (SIK2),pKi (SIK1),pKi (SIK3),pKi (Abl),pKi (Src),pKi (EPHA2),Compound
10.69,9.72,9.90,8.44,7.02,7.41,"Cc1cccc(F)c1-c1cc(OC2CCNCC2)c2cc(N)ncc2c1 [Example 46, 7-(2-Fluoro-6-methyl-phenyl)-5-(4-piperidyloxy)isoquinolin-3-amine]"
9.77,9.00,8.68,7.87,6.14,5.97,"Cc1cccc(F)c1-c1cc(OC2CNC2)c2cc(N)ncc2c1 [Example 47, 5-(azetidin-3-yloxy)-7-(2-fluoro-6-methyl-phenyl)isoquinolin-3-amine]"
10.05,9.47,9.53,7.65,6.49,6.64,"Cc1cccc(F)c1-c1cc(O[C@@H]2CCNC2)c2cc(N)ncc2c1 [Example 48, 7-(2-fluoro-6-methyl-phenyl)-5-[(3R)-pyrrolidin-3-yl]oxy-isoquinolin-3-amine]"
9.94,9.30,9.11,< 6.00,6.66,6.76,"Cc1cccc(F)c1-c1cc(NC2CCNCC2)c2ccncc2c1 [Example 49, 7-(2-Fluoro-6-methyl-phenyl)-N-(4-piperidyl)isoquinolin-5-amine]"
9.27,8.55,8.50,7.60,6.66,6.62,"Cc1cccc(F)c1-c1cc(NC2CNC2)c2ccncc2c1 [Example 51, N-(azetidin-3-yl)-7-(2-fluoro-6-methyl-phenyl)isoquinolin-5-amine]"
10.33,9.38,9.05,7.79,6.99,6.71,"Cc1cccc(F)c1-c1cc(NC2CCN(C)CC2)c2cc(N)ncc2c1 [Example 54, 7-(2-Fluoro-6-methyl-phenyl)-N5-(1-methyl-4-piperidyl)isoquinoline-3,5-diamine]"
9.66,9.02,8.41,8.04,7.24,6.74,"Cc1cccc(F)c1-c1cc(NC[C@@H]2CCCN2C)c2cc(N)ncc2c1 [Example 55, 7-(2-fluoro-6-methyl-phenyl)-N5-[[(2S)-1-methylpyrrolidin-2-yl]methyl] isoquinoline-3,5-diamine]"
9.24,8.98,8.20,7.32,6.64,6.62,"Cc1cccc(F)c1-c1cc(NC[C@H]2CCCCN2C)c2cc(N)ncc2c1 [Example 56, 7-(2-fluoro-6-methyl-phenyl)-N5-[[(2R)-1-methyl-2-piperidyl]methyl] isoquinoline-3,5-diamine]"
9.83,8.95,8.61,7.22,6.52,6.82,"Cc1cccc(F)c1-c1cc(N2CCC(N(C)C)CC2)c2cc(N)ncc2c1 [Example 57, 5-[4-(dimethylamino)-1-piperidyl]-7-(2-fluoro-6-methyl-phenyl)isoquinolin-3-amine]"
9.87,9.31,8.53,6.68,6.51,6.70,"Cc1cccc(Cl)c1-c1cc(NC2CCN(C)CC2)c2cc(N)ncc2c1 [Example 62, 7-(2-Chloro-6-methyl-phenyl)-N5-(1-methyl-4-piperidyl)isoquinoline-3,5-diamine]"
